Results taken from BindingDB's records for patent US20250257051 (1910 Genetics, 2025).

Biological target: T1, Non-receptor tyrosine-protein kinase TYK2 [556-888] (Homo sapiens, UniProt P29597)
T1 construct: 556-888
Assay: TYK2 JH2 Domain Binding Assay
Description: Binding constants for compounds disclosed herein against the JH2 domain are determined by the following protocol for a KINOMEscan assay (DiscoveRx). A fusion protein of a partial length construct of human TYK2 (JH2domain-pseudokinase) (amino acids G556 to D888 based on reference sequence NP 003322.3) and the DNA binding domain of NFkB is expressed in transiently transfected HEK293 cells. From these HEK 293 cells, extracts are prepared in M-PER extraction buffer (Pierce) in the presence of Protease Inhibitor Cocktail Complete (Roche) and Phosphatase Inhibitor Cocktail Set II (Merck) per manufacturers' instructions. The TYK2 (JH2domain-pseudokinase) fusion protein is labeled with a chimeric double-stranded DNA tag containing the NFkB binding site (5′-GGGAATTCCC-3′) fused to an amplicon for qPCR readout, which is added directly to the expression extract (the final concentration of DNA-tag in the binding reaction is 0.1 nM).

T1 sequence (P29597 556-888): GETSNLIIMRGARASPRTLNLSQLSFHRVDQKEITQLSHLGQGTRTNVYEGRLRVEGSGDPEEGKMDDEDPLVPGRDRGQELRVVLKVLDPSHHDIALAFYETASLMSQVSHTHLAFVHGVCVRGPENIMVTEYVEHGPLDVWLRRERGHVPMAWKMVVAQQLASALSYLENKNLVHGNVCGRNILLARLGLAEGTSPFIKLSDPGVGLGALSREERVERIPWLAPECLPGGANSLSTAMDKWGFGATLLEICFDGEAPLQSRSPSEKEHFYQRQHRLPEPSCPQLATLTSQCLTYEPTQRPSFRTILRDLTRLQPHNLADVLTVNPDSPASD

Row | Kd [µM] | Structure (SMILES)
1 | 0.37 | CNC(=O)c1cnc(N2CCCC2)nc1Nc1ccc(C2CC2)nc1 [US20250257051, Compound 10]
2 | 3.3 | COc1ccccc1Nc1nc(N2CCCNCC2)ncc1C(N)=O [US20250257051, Compound 40]
3 | 19 | CNC(=O)c1cnc(N2CCNCC2C)nc1Nc1ccc(C2CC2)nc1 (centres undefined) [US20250257051, Compound 14]
4 | 2.9 | CC(C)(C)OC(=O)N1CCCN(c2ncc(C(N)=O)c(Nc3ccccc3S(C)(=O)=O)n2)CC1 [US20250257051, Compound 65]
